Measurements from patent publication US11761966B2, “Nourin gene-based RNA molecular network: novel early diagnostic and prognostic biomarkers for coronary artery disease, unstable angina, STEMI/NSTEMI and heart failure” (Nour Heart, Inc., priority 2018, dated 2023).
“Also recorded” adds a separate entry of the source. Where no end group is shown, it is not given here. The star is where a group is joined. For = O=C*

Experiments:
Swine Flu H1N1 virus = conditions: mice inoculated with Swine Flu H1N1 virus; cited from earlier work
Nourin = conditions: in-vitro; cited from earlier work
miR-137 [1] = conditions: spontaneously hypertensive rats; cited from earlier work
miR-137 [2] = assay: qPCR of Nourin RNA network in ISO rat model of HF: serum miR-137 gene expression; format: in vivo; conditions: for reduction of miR-137 gene expression: serum day 14, vs ISO/saline
Procedure: (§1) The standard quantitative real time PCR (qPCR) molecular assay described in Example 6 was used to determine the levels of Nourin RNA network in the ISO rat model of ischemia-induced HF. It was tested if the hypothesis that the levels of gene expression of Nourin molecular RNA Network (miR-137, miRNA-106b, mRNA FTHL-17, mRNA ANAPC11 and lncR-CTB89H12.4) will be elevated in HF rats, and that CCrP treatment will reduce their gene expression of Nourin molecular RNA Network in a dose-response manner.
(§2) After 14 days, gene expression of Nourin-dependent miR-137 and miR-106b and their signaling pathways mRNA-FTLH-17, mRNA-ANAPC11 and lncR-CTB89H12.4 were evaluated by qRT-PCR (Example 6).

mRNA-FTHL-17 = assay: qPCR of Nourin RNA network in ISO rat model of HF: serum mRNA-FTHL-17 gene expression; format: in vivo; conditions: for reduction of mRNA-FTHL-17 gene expression: serum day 14
Procedure: as §1, §2

lncR-CTB89H12.4 = assay: qPCR of Nourin RNA network in ISO rat model of HF: serum lncR-CTB89H12.4 gene expression; format: in vivo; conditions: for increase of lncR-CTB89H12.4 gene expression: serum day 14
Procedure: as §1, §2

miR-106b = assay: qPCR of Nourin RNA network in ISO rat model of HF: serum miR-106b gene expression; format: in vivo; conditions: for reduction of miR-106b gene expression: serum day 14
Procedure: as §1, §2

mRNA-ANAPC11 = assay: qPCR of Nourin RNA network in ISO rat model of HF: serum mRNA-ANAPC11 gene expression; format: in vivo; conditions: for reduction of mRNA-ANAPC11 gene expression: serum day 14
Procedure: as §1, §2

ISO rat model of HF = assay: Standard isoproterenol (ISO) rat model of heart failure: CK-MB, ejection fraction, collagen, fibrosis, heart weight, physical activity; format: in vivo; set-up: heart weight: unit not given here; conditions: for Ejection Fraction (EF %) by ECHO: after 14 days
hearts in cold storage = assay: Heart cold storage for 6 hours in HH solution (UW+CCrP) vs UW
Procedure: (§3) Furthermore, there was a higher weight gain in control hearts (UW) after 6 hours of cold storage compared to the CCrP-treated hearts (HH). […] The observed reduction of heart edema in the CCrP hearts (HH) is crucial for the restoration of contractile function during reperfusion at the end of 6-hour storage. […] Lewis rats were used for both the donors and recipients to avoid immunologic rejection. This approach allowed a focus at determining the in vivo cardioprotective benefits of CCrP treatment and to evaluate whether CCrP would restore cardiac contractility after prolonged cold storage and increase graft survival. Echocardiography (ECHO) analyses were conducted 2 hours after transplantation at day 0 and at day 3 before sacrifice.

rat grafted hearts = assay: In vivo rat syngeneic abdominal heterotopic heart transplantation after 22-24 hours cold storage; conditions: after 22 and 24 hours of cold storage; control poor
Procedure: as §3
Saline-treated control donor rats were evidently dilated with an increase in the sizes of both ventricles and atria. Additionally, the color was mildly cyanotic and the contractility was poor and irregular in rhythm. In most control grafted hearts, their heart beating score ranged from 1+ to 2+ at day 0 and day 3. Protection was shown in most of CCrP grafted hearts at day 3 where the myocardial color and the consistency of the degree of contractility were almost the same as day zero. […] Most the control grafted hearts, on the other hand, continued to show evidence of ischemia as well as loss of wall thickness and cardiac mass by day 0 and day 3 (FIG. 43).

[3] = Crossing of the blood-brain barrier
rabbit skin = conditions: within the first 30 minutes, neutrophil infiltration; cited from earlier work
[4] = tested on: patients with ST-Segment Elevation Myocardial Infarction; conditions: EMBRACE STEMI trial; cited from earlier work
HF patients = conditions: small study, wide confidence intervals; cited from earlier work

Procedure for healthy rats: After 14 days, ECHO analysis for Ejection Fraction (EF %) was conducted, as well as heart weight (mg), histologic analysis for fibrosis and deposition of collagen. Mean±S.E.M and one-way ANOVA analysis were used.

## C/C=C/C[C@@H](C)[C@@H](O)[C@H]1C(=O)N[C@@H](CC)C(=O)N(C)CC(=O)N(C)[C@@H](CC(C)C)C(=O)N[C@@H](C(C)C)C(=O)N(C)[C@@H](CC(C)C)C(=O)N[C@@H](C)C(=O)N[C@H](C)C(=O)N(C)[C@@H](CC(C)C)C(=O)N(C)[C@@H](CC(C)C)C(=O)N(C)[C@H](C(C)C)C(=O)N1C [Cyclosporin H]
Swine Flu H1N1 virus
  lung inflammation: significantly reduced lung inflammation
Nourin
  Nourin activity: inhibited Nourin activity

## C[C@H](CS)C(=O)N1CCC[C@H]1C(=O)O [captopril]
miR-137 [1]
  miR-137 expression: inhibit miR-137 expression

## Cyclocreatine Phosphate [CCrP]
miR-137 [2]; ISO/CCrP 0.4 g/kg
  reduction of miR-137 gene expression: 33%
miR-137 [2]; ISO/CCrP 0.8 g/kg
  reduction of miR-137 gene expression: 75%
miR-137 [2]; ISO/CCrP 1.2 g/kg
  reduction of miR-137 gene expression: 68%
miR-137 [2]; healthy rats, CCrP 0.8 g/kg, saline-treated healthy rats 1.15
  miR-137 gene expression (Mean): 1.60
mRNA-FTHL-17; ISO/CCrP 0.4 g/kg
  reduction of mRNA-FTHL-17 gene expression: 16%
mRNA-FTHL-17; ISO/CCrP 0.8 g/kg
  reduction of mRNA-FTHL-17 gene expression: 30%
mRNA-FTHL-17; ISO/CCrP 1.2 g/kg
  reduction of mRNA-FTHL-17 gene expression: 75%
mRNA-FTHL-17; healthy rats, CCrP 0.8 g/kg, saline-treated healthy rats 1.01
  mRNA-FTHL-17 gene expression (Mean): 0.67
lncR-CTB89H12.4; ISO/CCrP 0.4 g/kg
  increase of lncR-CTB89H12.4 gene expression: 1.33 fold
lncR-CTB89H12.4; ISO/CCrP 0.8 g/kg
  increase of lncR-CTB89H12.4 gene expression: 7.66 fold
lncR-CTB89H12.4; ISO/CCrP 1.2 g/kg
  increase of lncR-CTB89H12.4 gene expression: 14.33 fold
lncR-CTB89H12.4; healthy rats, CCrP 0.8 g/kg, saline-treated healthy rats 1.1
  lncR-CTB89H12.4 gene expression (Mean): 1.3
miR-106b; ISO/CCrP 0.4 g/kg
  reduction of miR-106b gene expression: 18%
miR-106b; ISO/CCrP 0.8 g/kg
  reduction of miR-106b gene expression: 44%
miR-106b; ISO/CCrP 1.2 g/kg
  reduction of miR-106b gene expression: 72%
miR-106b; healthy rats, CCrP 0.8 g/kg, saline-treated healthy rats 4.62
  miR-106b gene expression (Mean): 5.62
mRNA-ANAPC11; ISO/CCrP 0.4 g/kg
  reduction of mRNA-ANAPC11 gene expression: 18%
mRNA-ANAPC11; ISO/CCrP 0.8 g/kg
  reduction of mRNA-ANAPC11 gene expression: 31%
mRNA-ANAPC11; ISO/CCrP 1.2 g/kg
  reduction of mRNA-ANAPC11 gene expression: 70%
mRNA-ANAPC11; healthy rats, CCrP 0.8 g/kg, saline-treated healthy rats 1.0
  mRNA-ANAPC11 gene expression (Mean): 0.9
ISO rat model of HF; ISO/CCrP 0.4 g/kg
  Ejection Fraction (EF %) by ECHO: 54%
ISO rat model of HF; ISO/CCrP 0.4 g/kg, day 14
  collagen %: 3.3%
ISO rat model of HF; ISO/CCrP 0.4 g/kg, day 14, ISO 0.8 mg, normal saline 0.6 mg
  heart weight: 0.7
ISO rat model of HF; ISO/CCrP 0.8 g/kg, 24 hours after last ISO injection, ISO 206.20±6.25, control saline 82.60±5.2
  Serum CK-MB: 70.67±5.79 U/L
ISO rat model of HF; ISO/CCrP 0.8 g/kg, day 14
  heart weight: 0.6
ISO rat model of HF; ISO/CCrP 0.8 g/kg/day, ISO 36, control saline 64
  Ejection Fraction (EF %) by ECHO: 64%
ISO rat model of HF; ISO/CCrP 0.8 g/kg/day, day 14
  myocardial fibrosis (Masson's trichrome): very low fibrosis; also recorded: delicate fibrous tissue between the myocardial bundles, almost similar to healthy normal rats
ISO rat model of HF; ISO/CCrP 0.8 g/kg/day, day 14, ISO/saline 4.1
  collagen %: 0.7%
ISO rat model of HF; ISO/CCrP 1.2 g/kg
  Ejection Fraction (EF %) by ECHO: 59%
ISO rat model of HF; ISO/CCrP 1.2 g/kg, day 14
  collagen %: 0.2%
  heart weight: 0.7
ISO rat model of HF; ISO/CCrP group (n=5), day 14 before sacrifice
  physical activity: high physical activity
Hearts in cold storage; 6 hours cold storage, HH solution (UW+CCrP), control (UW) 0.31 gm
  heart weight after cold storage: 0.25 gm
Hearts in cold storage; CCrP treated-group (HH) vs saline control
  recovery of contractile function: significantly better
Rat grafted hearts
  general overall survival of the cardiac tissue of grafted hearts: very good to excellent
[3]
  crossing of the blood-brain barrier: crosses blood brain barrier
Healthy rats; control healthy rats, CCrP 0.8 g/kg/day, day 14
  myocardial fibrosis (Masson's trichrome): no fibrosis
Healthy rats; healthy rats, CCrP 0.8 g/kg daily for 14 days
  toxicity in heart, liver and renal function: no toxicity; also recorded: no observed toxic effect
Healthy rats; normal rats, CCrP 0.8 g/kg IP daily for 14 days
  levels of liver enzyme ALT, kidney Creatinine and Urea, CCrP vs saline: no significant difference; also recorded: no significance difference
Healthy rats; normal rats, CCrP 0.8 g/kg daily for 14 days
  heart weight: 0.6
Healthy rats; normal rats, CCrP 0.8 g/kg daily for 14 days, control saline 0.1
  collagen %: 0.1%
Healthy rats; normal rats, CCrP 0.8 g/kg daily for 14 days, control saline 64
  Ejection Fraction (EF %) by ECHO: 61%

## Nourin: 3 KDa N-formyl peptide released by ischemic heart, inflammatory mediator (SEQ ID NO:15) (For-MIINHNLAAINSHRSPGADGNGGEAMPGGGR; listed as Homo sapiens)
Rabbit skin
  inflammatory response in skin: acute inflammatory response

## elamipretide
[4]
  primary or secondary outcomes: did not improve the primary or secondary outcomes
HF patients
  left ventricular volumes: reduce left ventricular volumes
